From ChEMBL document CHEMBL1201862, “PubChem BioAssay data set” (2004)
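All cell lines were grown in 96-well plates and treated with compound for 48 hours. GI50 = concentration required for 50% inhibition of growth.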 The source made the active and inactive calls. No stated cut-off is given here; in the data, active = GI50 up to about 1.1 µM and inactive = higher.

Key:
Test in all cases: DTP human tumour cell line panel, 48 h
PC-3 = tested on: PC-3
MDA-N = tested on: MDA-N
SF-268 = tested on: SF-268
SNB-19 = tested on: SNB-19
RPMI-8226 = tested on: RPMI-8226
A549 = tested on: A549
M19-MEL = tested on: M19-MEL
SF-539 = tested on: SF-539
LOX IMVI = tested on: LOX IMVI
ACHN = tested on: ACHN
SK-MEL-28 = tested on: SK-MEL-28
SN12C = tested on: SN12C
U-251 = tested on: U-251
T47D = tested on: T47D
SK-MEL-5 = tested on: SK-MEL-5
RXF 393 = tested on: RXF 393
A498 = tested on: A498
OVCAR-4 = tested on: OVCAR-4
K562 = tested on: K562
TK-10 = tested on: TK-10

`O=C1C(CO)=C(CO)C(=O)c2c(O)ccc(O)c21` was tested. Which GI50 (PC-3) did it give?
The GI50 was 1.97 µM (inactive).

And the GI50 (MDA-N)?
The GI50 was 0.236 µM (active).

What about the GI50 (SF-268) of the same compound?
The GI50 was 0.649 µM (active).

What about the GI50 (SNB-19) of the same compound?
Its GI50 is 2.88 µM (inactive).

And the GI50 (RPMI-8226)?
Its GI50 is 0.117 µM (active).

And the GI50 (A549)?
Its GI50 is 1.64 µM (inactive).

And the GI50 (M19-MEL)?
The GI50 was 0.0719 µM (active).

And the GI50 (SF-539)?
The GI50 was 0.705 µM (active).

What about the GI50 (LOX IMVI) of the same compound?
The GI50 was 0.252 µM (active).

And the GI50 (ACHN)?
Its GI50 is 0.337 µM (active).

And the GI50 (SK-MEL-28)?
The GI50 was 0.391 µM (active).

What about the GI50 (SN12C) of the same compound?
Its GI50 is 0.287 µM (active).

And the GI50 (U-251)?
Its GI50 is 2.22 µM (inactive).

What about the GI50 (T47D) of the same compound?
Its GI50 is 0.363 µM (active).

And the GI50 (SK-MEL-5)?
The GI50 was 0.394 µM (active).

What about the GI50 (RXF 393) of the same compound?
Its GI50 is 0.39 µM (active).

And the GI50 (A498)?
Its GI50 is 1.69 µM (inactive).

And the GI50 (OVCAR-4)?
Its GI50 is 0.234 µM (active).

What about the GI50 (K562) of the same compound?
The GI50 was 0.0877 µM (active).

And the GI50 (TK-10)?
Its GI50 is 0.352 µM (active).

With `CC1=CC2=C(OCO1)C(=O)c1ccccc1C2=O` as the compound, how does the GI50 (PC-3) read?
The GI50 was 3.18 µM (inactive).

And the GI50 (MDA-N)?
Its GI50 is 0.408 µM (active).

And the GI50 (SF-268)?
Its GI50 is 7.5 µM (inactive).

And the GI50 (SNB-19)?
The GI50 was 9.59 µM (inactive).

What about the GI50 (RPMI-8226) of the same compound?
The GI50 was 4.52 µM (inactive).

What about the GI50 (A549) of the same compound?
Its GI50 is 6.08 µM (inactive).

And the GI50 (M19-MEL)?
Its GI50 is 1.79 µM (inactive).

And the GI50 (SF-539)?
The GI50 was 6.14 µM (inactive).

And the GI50 (LOX IMVI)?
The GI50 was 1.02 µM (active).

What about the GI50 (ACHN) of the same compound?
The GI50 was 3.76 µM (inactive).

And the GI50 (SK-MEL-28)?
Its GI50 is 4.86 µM (inactive).

And the GI50 (SN12C)?
Its GI50 is 5.68 µM (inactive).

What about the GI50 (U-251) of the same compound?
Its GI50 is 1.36 µM (inactive).

And the GI50 (T47D)?
The GI50 was 2.43 µM (inactive).

And the GI50 (SK-MEL-5)?
The GI50 was 1.5 µM (inactive).

And the GI50 (RXF 393)?
The GI50 was 4.61 µM (inactive).

And the GI50 (A498)?
Its GI50 is 14.5 µM (inactive).

And the GI50 (OVCAR-4)?
Its GI50 is 3.73 µM (inactive).

And the GI50 (K562)?
Its GI50 is 6.87 µM (inactive).

And the GI50 (TK-10)?
Its GI50 is 28.1 µM (inactive).
